Laboratory results as given in US20130172273A1, “CYCLOTETRAPEPTIDES WITH PRO-ANGIOGENIC PROPERTIES” (GENETADI BIOTECH, S.L., priority 2010, published 2013).

Tests used:
[1] = system: 17 angiogenic and adhesion-related genes in HUVEC cells; assay: Gene regulation assay (whole human gene-expression microarray); format: cell-based; settings: 10^−5M, 48 hours, FIG. 2
Method: HUVEC cells were maintained in CS—C Complete Medium, grown at 50 percent of confluency and then treated with 1.00E-05 M final concentration of the peptide compounds during 48 hours.
Total RNA was extracted from untreated control or RGD-compounds treated cells using TRIzol (Invitrogen) according to standard protocol. RNA was further purified with RNeasy Mini Kit (Qiagen) and the concentration and quality was assessed by NanoDrop spectrophotometer and Agilent 2100 Bioanalyzer, respectively. Only RNA Samples with a RIN number between […]were used in the microarray assays.
In order to study the intracellular effect of all RGD-binding compounds, a cell-culture whole gene-expression assay was performed. HUVEC cells were treated separately with a 10^−5M concentration of the test compounds during 48 hours. The simultaneous analysis of all human gene-expression by microarray let us identify which human gene(s) are induced, inhibited or un-affected after the test compounds were bound to the receptors of the cells.
Whole human gene expression microarray analysis was performed using Agilent Technologies (Santa Clara, Calif.). This platform comprises a two-color design with two RNA samples labelled with either Cy3 or Cy5 and hybridized to the same 44K Agilent microarray. Each array contains about 41,000 unique noncontrol 60-mer probes. RNAs from untreated and peptide treated-HUVEC cells were two-color labelled and hybridized to randomly chosen arrays a total of four times. A dye swap was performed for each sample on a different slide to remove any bias from the labelling dyes.
For each sample, 800 ng total RNA was reverse transcribed, linear amplified, and labelled with either Cy3 or Cy5 using Agilent's Low RNA Input Linear Amplification Kit PLUS, according to manufacturer's instructions. After labelling, samples were measured on a Nanodrop microarray module for labelling efficiency and quantification. Samples were then hybridized on Agilent 4×44K whole human genome GE arrays at 65° C. for 17 h. After washing in GE washing buffer, the slide was scanned with Agilent Microarray Scanner. Feature extraction software (Version 9.5.3) was used to convert the image into gene expression data. Data were normalized by the Linear Lowess method. Genes that were 1.5-fold differentially expressed on 3 of 4 arrays were scored as significant. Furthermore, only genes with a p-value≦0.05 based on a Student's t-test were selected. Mean fold change is mean of 4 arrays. Angiogenic-related genes were classified according to Gene Ontology.

[2] = target: αvβ3 integrin (Homo sapiens, UniProt P05106+P06756); settings: J. Med. Chem. 2010, vol. 53(1), pp. 106-118; cited from earlier work
[3] = system: αvβ3 integrin over-expressed human umbilical vein endothelial cells (HUVEC); assay: Endothelial cell adhesion assay (adhesion inhibition on a vitronectin surface); format: cell-based; settings: HUVEC on vitronectin-coated plate, 1 h at 37° C.; FIG. 1
Method: Human umbilical endothelial cell (HUVEC) was purchased from Cambrex BioScience (USA). Cells were grown on the 0.5% gelatin coated plate in CS—C Complete Medium (Sigma) and were used for experiments after three passages. DLD-1, human colon cancer cell line was purchased from LGC/ATCC (Cat. Number CCL-221), and maintained in RPMI 1640 (Sigma) supplemented with 10% FBS (Sigma). Human vitronectin was from Sigma. Peptides to be assayed were dissolved in double-distilled water at a concentration of 10 mg/ml and stored in the dark at −80°.
HUVEC cells were grown to subconfluent state and then harvested by 0.025% trypsin/EDTA (Sigma) in one minute. Cells were preincubated with various concentrations of peptides on ice for 15 min in CS—C Medium. Same volume of vehicle was added to cells as a control. Peptide-treated cells (5×10^4 cells/100 μl/well) were plated onto a 96-well microplate which was precoated with vitronectin ([…] in PBS), and incubated for 1 h at 37° C., 5% CO^2/95% air to allow cell attachment. Cells were washed gently with PBS for three times to remove detached cells. Number of adherent cells was measured by Fluorescent Cell counting Kit (FCCK) at 535 nm (excitation at 485 nm) using a fluorescent plate reader (Bioscan). […]
Data are expressed as the means±standard error of mean (SEM). Statistical differences among treatment groups were assessed by analysis of variance (ANOVA). […]

[4] = of 17 angiogenic and adhesion-related genes

αvβ3 integrin, sequence (P06756 31-889 limits assumed): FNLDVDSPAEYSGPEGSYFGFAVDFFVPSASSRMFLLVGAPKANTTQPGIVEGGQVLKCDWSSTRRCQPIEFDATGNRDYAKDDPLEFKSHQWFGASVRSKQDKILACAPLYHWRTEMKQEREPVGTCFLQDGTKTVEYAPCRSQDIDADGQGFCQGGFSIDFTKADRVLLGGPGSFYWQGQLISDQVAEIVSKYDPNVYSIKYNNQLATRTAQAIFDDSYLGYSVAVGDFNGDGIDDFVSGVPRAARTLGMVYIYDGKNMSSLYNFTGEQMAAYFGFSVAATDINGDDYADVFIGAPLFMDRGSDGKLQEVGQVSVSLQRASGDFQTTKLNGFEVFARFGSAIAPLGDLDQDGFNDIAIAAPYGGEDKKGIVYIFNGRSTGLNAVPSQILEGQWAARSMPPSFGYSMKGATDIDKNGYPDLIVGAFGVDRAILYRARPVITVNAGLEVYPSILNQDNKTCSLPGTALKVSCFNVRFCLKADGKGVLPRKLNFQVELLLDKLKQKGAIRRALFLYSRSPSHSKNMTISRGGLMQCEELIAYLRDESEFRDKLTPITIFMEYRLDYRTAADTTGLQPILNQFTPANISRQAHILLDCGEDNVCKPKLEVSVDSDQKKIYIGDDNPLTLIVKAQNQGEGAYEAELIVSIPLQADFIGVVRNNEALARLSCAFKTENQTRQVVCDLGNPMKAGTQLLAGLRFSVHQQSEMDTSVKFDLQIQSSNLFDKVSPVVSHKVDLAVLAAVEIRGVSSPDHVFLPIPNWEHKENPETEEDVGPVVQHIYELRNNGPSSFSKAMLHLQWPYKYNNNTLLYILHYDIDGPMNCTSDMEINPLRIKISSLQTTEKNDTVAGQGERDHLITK
αvβ3 integrin, sequence (P06756 891-1048 limits assumed): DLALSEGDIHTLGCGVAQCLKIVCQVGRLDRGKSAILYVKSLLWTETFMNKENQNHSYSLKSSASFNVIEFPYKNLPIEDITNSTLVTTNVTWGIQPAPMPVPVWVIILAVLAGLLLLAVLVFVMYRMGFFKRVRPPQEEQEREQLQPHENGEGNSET
αvβ3 integrin, sequence (P05106 27-788): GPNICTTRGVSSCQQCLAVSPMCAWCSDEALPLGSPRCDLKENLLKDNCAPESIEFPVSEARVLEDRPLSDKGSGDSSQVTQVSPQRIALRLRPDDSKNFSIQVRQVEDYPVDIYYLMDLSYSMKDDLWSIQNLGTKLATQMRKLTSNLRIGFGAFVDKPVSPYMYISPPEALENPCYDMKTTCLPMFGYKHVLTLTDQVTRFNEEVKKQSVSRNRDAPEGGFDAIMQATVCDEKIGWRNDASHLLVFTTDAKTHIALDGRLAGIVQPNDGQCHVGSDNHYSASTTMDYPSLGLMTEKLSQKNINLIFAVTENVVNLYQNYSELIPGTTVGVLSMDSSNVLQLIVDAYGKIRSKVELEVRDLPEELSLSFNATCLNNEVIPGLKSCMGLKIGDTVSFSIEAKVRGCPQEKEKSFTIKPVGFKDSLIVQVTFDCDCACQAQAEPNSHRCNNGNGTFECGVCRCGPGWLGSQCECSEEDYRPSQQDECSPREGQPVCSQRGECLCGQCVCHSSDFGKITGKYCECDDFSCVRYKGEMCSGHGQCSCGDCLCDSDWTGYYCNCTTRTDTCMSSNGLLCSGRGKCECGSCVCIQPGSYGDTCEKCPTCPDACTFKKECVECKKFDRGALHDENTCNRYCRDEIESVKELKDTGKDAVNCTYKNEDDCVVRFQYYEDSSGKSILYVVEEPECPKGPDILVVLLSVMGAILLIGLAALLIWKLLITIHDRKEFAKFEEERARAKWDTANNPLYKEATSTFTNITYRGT

## CC(C)[C@H]1C(=O)N[C@@H](CCCN=C(N)N)C(=O)NCC(=O)N[C@@H](CC(=O)O)C(=O)N[C@H](Cc2ccccc2)C(=O)N1C [cilengitide, cyclo(Arg-Gly-Asp-(D)Phe-N(Me)Val)]
[1]; [4]
  genes activated after treatment: 10 genes
  genes blocked after treatment: 7 genes

## N=C(N)NCCC[C@@H]1NC(=O)CN2C(=O)C(NC(=O)[C@H](CC(=O)O)NC(=O)CNC1=O)[C@H]2[C@H](O)CO (stereo partly shown) [compound 1]
[1]; of 17 genes
  pattern of gene-expression conserved relative to cilengitide: 15/17

## CC1(C)C(=O)N[C@@H](CCCNC(=N)N)C(=O)NCC(=O)N[C@@H](CC(=O)O)C(=O)NC2(Cc3ccccc3)CN1C2=O (stereo partly shown) [compound 2]
[1]; of 17 genes
  pattern of gene-expression conserved relative to cilengitide: 14 of 17

## c[(R)-βPheψ(NHCO)Aspψ(NHCO)Gly-Arg]
[2]
  inhibiting the αvβ3 integrin-mediated cell adhesion: good activity

## cyclo-[Asp-(beta-Lactam)-Arg [Example 24]
[3]
  adhesion inhibition (% of cell adhesion vs. concentration): comparable adhesion inhibition as cilengitide and the RGD-cyclopentapeptides
[1]; of 17 genes
  pattern of gene-expression almost opposite (activation vs inhibition) compared with cilengitide: 15 of 17
